Test results from ChEMBL document CHEMBL1138016, “Azaadamantane benzamide 5-HT4 agonists: gastrointestinal prokinetic SC-54750” (Bioorg Med Chem Lett, 2004).

Tests used:
[1] = Concentration required for inhibition of 5-hydroxytryptamine 1 receptor using [3H]-5-HT as the radioligand
[2] = Concentration required for inhibition of Dopamine receptor D2 using [3H]spiperone as the radioligand
[3] = Concentration required for inhibition of Dopamine receptor D1 using [3H]SCH-23,390 as the radioligand
[4] = target: T1, Serotonin 3 (5-HT3) receptor (Rattus norvegicus, UniProt P35563+Q9JJ16); assay: Binding affinity towards 5-hydroxytryptamine 3 receptor using [3H]GR-65630 as the radioligand in male rat cortical tissue; format: protein-complex assay
T1 sequence (P35563 whole entry): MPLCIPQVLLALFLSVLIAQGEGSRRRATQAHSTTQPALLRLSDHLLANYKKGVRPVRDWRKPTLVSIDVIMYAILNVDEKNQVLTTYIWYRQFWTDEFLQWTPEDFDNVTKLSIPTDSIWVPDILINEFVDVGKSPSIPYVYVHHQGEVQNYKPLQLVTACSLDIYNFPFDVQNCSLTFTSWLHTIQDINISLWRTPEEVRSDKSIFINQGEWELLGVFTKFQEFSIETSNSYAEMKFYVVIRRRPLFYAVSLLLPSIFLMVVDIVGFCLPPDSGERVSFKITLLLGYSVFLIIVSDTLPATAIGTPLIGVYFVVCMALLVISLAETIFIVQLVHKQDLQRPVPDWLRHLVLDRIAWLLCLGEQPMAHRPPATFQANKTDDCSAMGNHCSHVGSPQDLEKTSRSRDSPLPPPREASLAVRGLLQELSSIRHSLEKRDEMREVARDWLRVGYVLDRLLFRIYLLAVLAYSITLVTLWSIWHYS
T1 sequence (Q9JJ16 whole entry): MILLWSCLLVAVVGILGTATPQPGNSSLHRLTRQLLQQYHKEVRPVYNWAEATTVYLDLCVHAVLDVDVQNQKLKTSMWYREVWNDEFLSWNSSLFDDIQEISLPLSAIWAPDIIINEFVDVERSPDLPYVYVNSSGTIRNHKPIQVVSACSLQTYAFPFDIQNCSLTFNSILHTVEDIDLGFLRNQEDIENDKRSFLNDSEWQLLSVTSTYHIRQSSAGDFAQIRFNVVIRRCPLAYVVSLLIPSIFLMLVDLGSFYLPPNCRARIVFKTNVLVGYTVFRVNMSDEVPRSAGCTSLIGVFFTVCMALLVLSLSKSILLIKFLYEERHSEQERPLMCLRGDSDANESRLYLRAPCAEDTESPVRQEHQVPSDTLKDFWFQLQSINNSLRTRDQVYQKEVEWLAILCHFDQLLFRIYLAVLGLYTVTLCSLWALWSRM

[5] = target: Serotonin 2 (5-HT2) receptor (Homo sapiens, UniProt P41595+P28223+P28335); format: protein assay
[6] = target: 5-hydroxytryptamine receptor 4 (Rattus norvegicus) (UniProt Q62758); assay: Effective concentration required towards 5-hydroxytryptamine 4 receptor in rat tunica muscularis mucosae
Chain of 5-hydroxytryptamine receptor 4 (Rattus norvegicus) (Q62758 whole entry, looked up): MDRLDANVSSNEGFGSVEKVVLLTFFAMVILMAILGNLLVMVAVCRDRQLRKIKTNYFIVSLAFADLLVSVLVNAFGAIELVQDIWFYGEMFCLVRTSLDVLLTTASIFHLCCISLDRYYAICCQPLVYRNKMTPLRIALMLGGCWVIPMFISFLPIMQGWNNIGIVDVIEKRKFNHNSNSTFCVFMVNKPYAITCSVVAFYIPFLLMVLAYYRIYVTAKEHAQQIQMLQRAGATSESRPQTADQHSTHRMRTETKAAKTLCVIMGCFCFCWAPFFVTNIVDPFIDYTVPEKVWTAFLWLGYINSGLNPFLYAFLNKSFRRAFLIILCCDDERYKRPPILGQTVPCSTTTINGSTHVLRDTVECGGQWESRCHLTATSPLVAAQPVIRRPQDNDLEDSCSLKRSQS

[7] = target: 5-hydroxytryptamine receptor 4 (Cavia porcellus); assay: Binding affinity for 5-hydroxytryptamine 4 receptor in guinea pig was determined by guinea pig striatum binding assay
Oryctolagus cuniculus [8] = assay: Effective dose required for restoring normal motility after i.v. administration; format: functional, Canis lupus familiaris; details: iv
Oryctolagus cuniculus [9] = assay: Effective concentration required for restoring normal motility after i.v. administration; format: functional, organism-based, Canis lupus familiaris
Canis familiaris = assay: Tested for inhibition of cisplatin-induced emesis in dog after i.g. administration; details: Canis lupus familiaris, po; read-out: ID50 (the source's name)

Q: What does the source list for `COc1cc(N)c(Cl)cc1C(=O)NC1C2CC3CC1CN(C3)C2` (stereo in doubt; 9a)?
A: IC50 [1]: > 10 µM; IC50 [2]: > 10 µM; IC50 [3]: > 10 µM; Ki [4]: 336 nM; IC50 [5]: 1.8 µM; EC50 [6]: 538 nM; Ki [7]: > 500 nM

Q: Which results are given for `COc1cc(N)c(Cl)cc1C(=O)NC1C2CC3CC1CN(C3)C2` (stereo in doubt; 9b)?
A: Ki [4]: 9 nM; IC50 [5]: > 10 µM; EC50 [6]: 262 nM; Ki [7]: 57 nM

Q: What does the source list for `COc1cc(N)c(Cl)cc1C(=O)NCC1C2CC3CC1CN(C3)C2` (stereo in doubt; 9c)?
A: IC50 [1]: > 10 µM; IC50 [2]: > 10 µM; IC50 [3]: > 10 µM; Ki [4]: 25.4 nM; IC50 [5]: > 10 µM; ED50 (Oryctolagus cuniculus [8]): 0.62 mg/kg; EC50 (Oryctolagus cuniculus [9]): 0.03 mg/kg; ED50 (Canis familiaris): 0.3 mg/kg
